Assay results from ChEMBL document CHEMBL1201862, “PubChem BioAssay data set” (2004).
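Compound exposure: 48 hours, 5 concentrations, 96-well plates. Here, GI50 denotes the concentration required for 50% inhibition of growth.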 Active and inactive are the calls of the source. Cut-off read from the data, not from the text of the source: active = GI50 up to about 1.1 µM and inactive = higher. Non-standard residues stand in square brackets, D forms with d. Residues, ends and D or L forms follow the SMILES beside them. ξ: configuration not given here. *: point of attachment. NMeF = CN[C@@H](Cc1ccccc1)C(=O)O; NMeV = CN[C@H](C(=O)O)C(C)C; ξNMeV = CNC(C(=O)O)C(C)C; Boc = CC(C)(C)OC(=O)*; OBn = c1ccc(CO*)cc1

Assays:
Assay in all cases: inhibition of tumour cell growth, NCI panel, 48 h
KM-20L2 = tested on: KM-20L2
DMS-114 = tested on: DMS-114
SF-295 = tested on: SF-295
OVCAR-4 = tested on: OVCAR-4
ACHN = tested on: ACHN
M14 = tested on: M14
HCT-116 = tested on: HCT-116
UO-31 = tested on: UO-31
HOP-62 = tested on: HOP-62
HOP-18 = tested on: HOP-18
NCI-H460 = tested on: NCI-H460
Malme-3M = tested on: Malme-3M
U-251 = tested on: U-251
NCI-H226 = tested on: NCI-H226
SK-MEL-2 = tested on: SK-MEL-2
K562 = tested on: K562
CAKI-1 = tested on: CAKI-1
MOLT-4 = tested on: MOLT-4
HL-60 = tested on: HL-60
SK-MEL-5 = tested on: SK-MEL-5
EKVX = tested on: EKVX
NCI-H522 = tested on: NCI-H522
IGROV-1 = tested on: IGROV-1
HCT-15 = tested on: HCT-15
SNB-75 = tested on: SNB-75
SNB-78 = tested on: SNB-78
SF-268 = tested on: SF-268
UACC-257 = tested on: UACC-257
SW-620 = tested on: SW-620
A549 = tested on: A549
RXF 393 = tested on: RXF 393
OVCAR-5 = tested on: OVCAR-5
OVCAR-3 = tested on: OVCAR-3
UACC-62 = tested on: UACC-62
HCC 2998 = tested on: HCC 2998
CCRF-CEM = tested on: CCRF-CEM
TK-10 = tested on: TK-10
LXFL 529 = tested on: LXFL 529
SR = tested on: SR
DMS-273 = tested on: DMS-273
SNB-19 = tested on: SNB-19
COLO 205 = tested on: COLO 205
SK-MEL-28 = tested on: SK-MEL-28
HT-29 = tested on: HT-29
RPMI-8226 = tested on: RPMI-8226
786-0 = tested on: 786-0
KM12 = tested on: KM12
M19-MEL = tested on: M19-MEL
SN12C = tested on: SN12C
OVCAR-8 = tested on: OVCAR-8
LOX IMVI = tested on: LOX IMVI
A498 = tested on: A498
SF-539 = tested on: SF-539
XF498 = tested on: XF498
DLD-1 = tested on: DLD-1
NCI-H23 = tested on: NCI-H23
SK-OV-3 = tested on: SK-OV-3
HOP-92 = tested on: HOP-92

CC(C)C(C(=O)N(C)[C@H](C(=O)N1CCC[C@H]1C(=O)N(C)[C@@H](Cc1ccccc1)C(=O)OCc1ccccc1)C(C)C)N(C)C(=O)[C@@H](NC(=O)OC(C)(C)C)C(C)C (stereo partly specified) (Boc-V[ξNMeV][NMeV]P[NMeF]-OBn)
GI50 (KM-20L2): > 31.6 µM (inactive)
GI50 (DMS-114): 11 µM (inactive)
GI50 (SF-295): 19.8 µM (inactive)
GI50 (OVCAR-4): > 29.5 µM (inactive)
GI50 (ACHN): > 57.4 µM (inactive)
GI50 (M14): 85.1 µM (inactive)
GI50 (HCT-116): 10.8 µM (inactive)
GI50 (UO-31): 30.4 µM (inactive)
GI50 (HOP-62): > 31.6 µM (inactive)
GI50 (HOP-18): 32.1 µM (inactive)
GI50 (NCI-H460): 15.8 µM (inactive)
GI50 (Malme-3M): 34.8 µM (inactive)
GI50 (U-251): > 31.6 µM (inactive)
GI50 (NCI-H226): > 63.5 µM (inactive)
GI50 (SK-MEL-2): > 31.6 µM (inactive)
GI50 (K562): 4.42 µM (inactive)
GI50 (CAKI-1): > 31.6 µM (inactive)
GI50 (MOLT-4): 5.37 µM (inactive)
GI50 (HL-60): 4.58 µM (inactive)
GI50 (SK-MEL-5): 7.14 µM (inactive)
GI50 (EKVX): > 31.6 µM (inactive)
GI50 (NCI-H522): > 100 µM (inactive)
GI50 (IGROV-1): 22.5 µM (inactive)
GI50 (HCT-15): 8.65 µM
GI50 (SNB-75): 12 µM (inactive)
GI50 (SNB-78): > 31.6 µM (inactive)
GI50 (SF-268): > 31.6 µM (inactive)
GI50 (UACC-257): 9.33 µM (inactive)
GI50 (SW-620): > 31.6 µM (inactive)
GI50 (A549): 18.7 µM (inactive)
GI50 (RXF 393): 24.6 µM (inactive)
GI50 (OVCAR-5): > 31.6 µM (inactive)
GI50 (OVCAR-3): 15.3 µM (inactive)
GI50 (UACC-62): > 31.6 µM (inactive)
GI50 (HCC 2998): > 10 µM (inactive)
GI50 (CCRF-CEM): 11.2 µM (inactive)
GI50 (TK-10): 29.2 µM (inactive)
GI50 (LXFL 529): 15.1 µM (inactive)
GI50 (SR): 7.36 µM (inactive)
GI50 (DMS-273): 5.48 µM (inactive)
GI50 (SNB-19): > 31.6 µM (inactive)
GI50 (COLO 205): 11.4 µM (inactive)
GI50 (SK-MEL-28): > 31.6 µM (inactive)
GI50 (HT-29): 14.2 µM (inactive)
GI50 (RPMI-8226): 4.97 µM (inactive)
GI50 (786-0): > 43.3 µM (inactive)
GI50 (KM12): > 10 µM (inactive)
GI50 (M19-MEL): 30 µM (inactive)
GI50 (SN12C): > 100 µM (inactive)
GI50 (OVCAR-8): > 31.6 µM (inactive)
GI50 (LOX IMVI): 23.9 µM (inactive)
GI50 (A498): 19.5 µM (inactive)
GI50 (SF-539): > 31.6 µM (inactive)
GI50 (XF498): 6.19 µM (inactive)
GI50 (DLD-1): 24.9 µM (inactive)
GI50 (NCI-H23): 19.5 µM (inactive)
GI50 (SK-OV-3): > 31.6 µM (inactive)
GI50 (HOP-92): 10.2 µM (inactive)

C=C1CCC2[C@@H](CCC3[C@]2(C)CCC[C@]3(C)C(=O)OC)[C@@H]1CC=O (stereo partly specified)
GI50 (KM-20L2): 27 µM (inactive)
GI50 (DMS-114): 22 µM (inactive)
GI50 (OVCAR-4): 27.6 µM (inactive)
GI50 (ACHN): 27.2 µM (inactive)
GI50 (M14): 19.4 µM (inactive)
GI50 (HCT-116): 16.7 µM (inactive)
GI50 (HOP-18): 24.8 µM (inactive)
GI50 (NCI-H460): 20 µM (inactive)
GI50 (Malme-3M): 28.8 µM (inactive)
GI50 (NCI-H226): 27.7 µM (inactive)
GI50 (SK-MEL-2): 31.6 µM (inactive)
GI50 (HL-60): 23.5 µM (inactive)
GI50 (SK-MEL-5): 17 µM (inactive)
GI50 (EKVX): 35.1 µM (inactive)
GI50 (IGROV-1): 35.8 µM (inactive)
GI50 (HCT-15): 29.5 µM
GI50 (SNB-78): 34.4 µM (inactive)
GI50 (SF-268): 34.6 µM (inactive)
GI50 (UACC-257): 26.5 µM (inactive)
GI50 (SW-620): 17.6 µM (inactive)
GI50 (OVCAR-3): 20.5 µM (inactive)
GI50 (UACC-62): 24.6 µM (inactive)
GI50 (HCC 2998): 61.7 µM (inactive)
GI50 (CCRF-CEM): 22.4 µM (inactive)
GI50 (LXFL 529): 31.9 µM (inactive)
GI50 (DMS-273): 22.4 µM (inactive)
GI50 (COLO 205): 36.9 µM (inactive)
GI50 (SK-MEL-28): 27.7 µM (inactive)
GI50 (HT-29): 28.1 µM (inactive)
GI50 (786-0): 36.1 µM (inactive)
GI50 (M19-MEL): 22.4 µM (inactive)
GI50 (SN12C): 30.3 µM (inactive)
GI50 (OVCAR-8): 23.6 µM (inactive)
GI50 (SF-539): 17.9 µM (inactive)
GI50 (XF498): 19.9 µM (inactive)
GI50 (DLD-1): 33.6 µM (inactive)
GI50 (NCI-H23): 25.8 µM (inactive)
GI50 (HOP-92): 20.2 µM (inactive)

CCOC(=O)C1(CC)CCCCC(=O)N1 (stereo unspecified)
GI50 (KM-20L2): > 100 µM (inactive)
GI50 (DMS-114): > 100 µM (inactive)
GI50 (SF-295): > 100 µM (inactive)
GI50 (OVCAR-4): > 100 µM (inactive)
GI50 (ACHN): > 100 µM (inactive)
GI50 (M14): > 100 µM (inactive)
GI50 (UO-31): > 100 µM (inactive)
GI50 (HOP-62): > 100 µM (inactive)
GI50 (HOP-18): > 100 µM (inactive)
GI50 (NCI-H460): > 100 µM (inactive)
GI50 (Malme-3M): > 100 µM (inactive)
GI50 (U-251): > 100 µM (inactive)
GI50 (K562): > 100 µM (inactive)
GI50 (CAKI-1): > 100 µM (inactive)
GI50 (HL-60): 36.2 µM (inactive)
GI50 (EKVX): > 100 µM (inactive)
GI50 (IGROV-1): > 100 µM (inactive)
GI50 (HCT-15): > 100 µM
GI50 (SNB-78): > 100 µM (inactive)
GI50 (SF-268): > 100 µM (inactive)
GI50 (SW-620): > 100 µM (inactive)
GI50 (A549): > 100 µM (inactive)
GI50 (RXF 393): > 100 µM (inactive)
GI50 (OVCAR-3): > 100 µM (inactive)
GI50 (UACC-62): > 100 µM (inactive)
GI50 (HCC 2998): > 100 µM (inactive)
GI50 (CCRF-CEM): > 100 µM (inactive)
GI50 (TK-10): > 100 µM (inactive)
GI50 (LXFL 529): > 100 µM (inactive)
GI50 (DMS-273): > 100 µM (inactive)
GI50 (COLO 205): > 100 µM (inactive)
GI50 (SK-MEL-28): > 100 µM (inactive)
GI50 (HT-29): > 100 µM (inactive)
GI50 (786-0): > 100 µM (inactive)
GI50 (M19-MEL): > 100 µM (inactive)
GI50 (SN12C): > 100 µM (inactive)
GI50 (OVCAR-8): > 100 µM (inactive)
GI50 (LOX IMVI): > 100 µM (inactive)
GI50 (XF498): > 100 µM (inactive)
GI50 (DLD-1): > 100 µM (inactive)
GI50 (NCI-H23): > 100 µM (inactive)
GI50 (SK-OV-3): > 100 µM (inactive)
GI50 (HOP-92): > 100 µM (inactive)

C=C1CCC2[C@@H](CCC3[C@]2(C)CCC[C@]3(C)C(=O)OC)C1CC=O (stereo partly specified)
GI50 (KM-20L2): 18.8 µM (inactive)
GI50 (DMS-114): 17.5 µM (inactive)
GI50 (OVCAR-4): 17.4 µM (inactive)
GI50 (ACHN): 15.9 µM (inactive)
GI50 (M14): 16.5 µM (inactive)
GI50 (HCT-116): 15.2 µM (inactive)
GI50 (HOP-18): 15.6 µM (inactive)
GI50 (NCI-H460): 15.3 µM (inactive)
GI50 (Malme-3M): 19.1 µM (inactive)
GI50 (NCI-H226): 17.9 µM (inactive)
GI50 (SK-MEL-2): 18.9 µM (inactive)
GI50 (HL-60): 15.6 µM (inactive)
GI50 (SK-MEL-5): 19.6 µM (inactive)
GI50 (EKVX): 20.1 µM (inactive)
GI50 (IGROV-1): 20.2 µM (inactive)
GI50 (HCT-15): 19.9 µM
GI50 (SNB-78): 17.6 µM (inactive)
GI50 (SF-268): 18.2 µM (inactive)
GI50 (UACC-257): 16.2 µM (inactive)
GI50 (SW-620): 19.1 µM (inactive)
GI50 (OVCAR-3): 14.2 µM (inactive)
GI50 (UACC-62): 15.2 µM (inactive)
GI50 (CCRF-CEM): 14 µM (inactive)
GI50 (LXFL 529): 16 µM (inactive)
GI50 (DMS-273): 20.9 µM (inactive)
GI50 (COLO 205): 18.5 µM (inactive)
GI50 (SK-MEL-28): 16.3 µM (inactive)
GI50 (HT-29): 16.6 µM (inactive)
GI50 (786-0): 18.1 µM (inactive)
GI50 (M19-MEL): 18.2 µM (inactive)
GI50 (SN12C): 18.2 µM (inactive)
GI50 (OVCAR-8): 19.4 µM (inactive)
GI50 (SF-539): 16.9 µM (inactive)
GI50 (XF498): 14.1 µM (inactive)
GI50 (DLD-1): 21.6 µM (inactive)
GI50 (NCI-H23): 18.6 µM (inactive)
GI50 (HOP-92): 14.6 µM (inactive)
